# Structures can show the parent of a compound that is named as a salt.
# Key:
# dipeptidyl peptidase IV = dipeptidyl peptidase IV (Homo sapiens, UniProt P27487); experiment: Action of effectors on the DP IV-catalysed hydrolysis of H-Gly-Pro-pNA; assay type: biochemical; conditions: 0.4 mM H-Gly-Pro-pNA, 30° C., pH 7.6, ionic strength 0.125; for remaining activity at 10 µM / % Residual activity of DP IV in the presence of 10 μM effector: 10 μM effector; for remaining activity at 10 µM: read-out: % Residual activity of DP IV in the presence of 10 μM effector; for Ki: read-out: Effector affinity to DP IV: Ki
# dipeptidyl peptidase IV, sequence (P27487 whole entry, species assumed): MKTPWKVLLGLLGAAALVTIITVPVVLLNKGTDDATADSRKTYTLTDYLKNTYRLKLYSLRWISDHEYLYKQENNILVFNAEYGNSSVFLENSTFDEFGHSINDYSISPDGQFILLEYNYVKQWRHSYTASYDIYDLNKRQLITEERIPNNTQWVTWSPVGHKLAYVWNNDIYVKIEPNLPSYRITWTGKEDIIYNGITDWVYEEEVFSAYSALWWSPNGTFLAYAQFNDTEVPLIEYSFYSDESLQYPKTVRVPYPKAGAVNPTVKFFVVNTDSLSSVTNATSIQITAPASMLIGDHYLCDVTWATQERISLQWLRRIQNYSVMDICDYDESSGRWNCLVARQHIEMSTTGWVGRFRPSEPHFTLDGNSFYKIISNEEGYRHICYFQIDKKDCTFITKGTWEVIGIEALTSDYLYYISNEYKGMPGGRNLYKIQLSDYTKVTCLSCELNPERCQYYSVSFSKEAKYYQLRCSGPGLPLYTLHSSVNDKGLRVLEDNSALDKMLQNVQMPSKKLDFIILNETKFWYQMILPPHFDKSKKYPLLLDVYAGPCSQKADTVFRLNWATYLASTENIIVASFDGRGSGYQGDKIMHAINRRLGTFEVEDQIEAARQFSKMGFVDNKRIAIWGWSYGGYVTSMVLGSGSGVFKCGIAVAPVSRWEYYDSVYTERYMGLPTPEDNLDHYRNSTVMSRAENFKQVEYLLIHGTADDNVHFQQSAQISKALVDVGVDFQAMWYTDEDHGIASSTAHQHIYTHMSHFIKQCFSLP
# [1] = system: circulating blood glucose; experiment: Circulating blood glucose after oral administration with synchronous glucose tolerance test; assay type: in vivo, Wistar rat; conditions: for Glucose concentration in % L-allo-Ile-thiazolidide-treated: oral 20 μM, within 60 min, % based on normoglycaemic values (control 100)
# [2] = target: T1, peptide transporter Pep T1 (Homo sapiens, UniProt P46059); experiment: Transport by the peptide transporter Pep T1; assay type: in vitro ADME; conditions: in comparison with L-threo-isoleucyl thiazolidide
# T1 sequence (P46059 1-708): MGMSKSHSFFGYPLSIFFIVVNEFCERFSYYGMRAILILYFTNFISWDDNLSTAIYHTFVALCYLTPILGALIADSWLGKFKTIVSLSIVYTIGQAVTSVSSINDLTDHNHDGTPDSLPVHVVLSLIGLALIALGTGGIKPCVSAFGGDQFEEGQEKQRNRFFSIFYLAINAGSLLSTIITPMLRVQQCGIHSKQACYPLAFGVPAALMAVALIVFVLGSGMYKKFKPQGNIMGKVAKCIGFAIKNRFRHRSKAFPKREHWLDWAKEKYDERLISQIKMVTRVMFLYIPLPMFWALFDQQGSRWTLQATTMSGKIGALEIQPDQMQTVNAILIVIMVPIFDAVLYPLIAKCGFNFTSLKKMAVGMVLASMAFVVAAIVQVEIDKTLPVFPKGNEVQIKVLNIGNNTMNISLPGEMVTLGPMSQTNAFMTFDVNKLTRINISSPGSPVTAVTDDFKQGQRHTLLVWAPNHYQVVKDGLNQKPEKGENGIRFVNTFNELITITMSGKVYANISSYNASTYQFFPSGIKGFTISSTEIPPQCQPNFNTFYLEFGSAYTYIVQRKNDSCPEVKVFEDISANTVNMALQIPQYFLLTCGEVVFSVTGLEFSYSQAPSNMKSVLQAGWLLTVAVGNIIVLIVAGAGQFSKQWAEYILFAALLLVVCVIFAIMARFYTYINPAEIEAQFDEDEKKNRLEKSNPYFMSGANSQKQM
# [3] = Testing the solubility of salts of Ile-Thia in distilled water; assay type: physicochemical; conditions: H2Odist.
# Method: Testing the Solubility of Salts of Ile-Thia
# Addition of 100 μl H2Odist.
SMILES,remaining activity at 10 µM (dipeptidyl peptidase IV) [%],Ki (dipeptidyl peptidase IV) [µM],further results
NC(=O)CC(N)C(=O)N1CCCC1 (centres unmarked) [H-Asn-pyrrolidide],83.1,12,
NC(CC(=O)NO)C(=O)N1CCCC1 (centres unmarked) [H-Asp(NHOH)-pyrrolidide],88.2,13,
NC(CC(=O)NO)C(=O)N1CCSC1 (centres unmarked) [H-Asp(NHOH)-thiazolidide],54.5,8.8,
NC(CC(=O)O)C(=O)N1CCCC1 (centres unmarked) [H-Asp-pyrrolidide],81.6,14,
CC[C@H](C)[C@H](N)C(=O)N1CC1 [H-Ile-azididide],,3.1,% Residual activity of DP IV in the presence of 10 μM effector (dipeptidyl peptidase IV): 43.8%
"CC[C@@H](C)[C@H](N)C(=O)N1CCSC1 [H-L-allo-Ile-thiazolidide, L-allo-isoleucyl thiazolidide]",,,"Glucose concentration in % L-allo-Ile-thiazolidide-treated ([1]; Wistar rat (diabetes 2b-model, obese)): 73%; Glucose concentration in % L-allo-Ile-thiazolidide-treated ([1]; Wistar rat, normal): 82%; Degree of action with respect to glucose modulation ([1]; in comparison with L-threo-isoleucyl thiazolidide): approximately the same degree of action; Improvement in transport by the peptide transporter Pep T1 [2]: approximately five-fold"
"CC[C@H](C)[C@H](N)C(=O)N1CCSC1 [L-threo-IT*F, L-threo-isoleucyl thiazolidide fumarate]",,,Wettability and decomposition in water [3]: scarcely wettable and does not decompose; Solubility: concentration at complete dissolution ([3]; visual): 2.63%
"C[C@H]1O[C@H](O[C@H]2[C@H](O)[C@@H](O)[C@@H](O[C@H]3[C@H](O)[C@@H](O)C(O)O[C@@H]3CO)O[C@@H]2CO)[C@H](O)[C@@H](O)[C@@H]1N[C@H]1C=C(CO)[C@@H](O)[C@H](O)[C@H]1O (some centres unmarked) [acarbose, reference compound]",100,> 1000,
"COc1ccc(Cl)cc1C(=O)NCCc1ccc(S(=O)(=O)NC(=O)NC2CCCCC2)cc1 [glibenclamide, reference compound]",100,> 1000,
"CN(C)C(=N)N=C(N)N [metformin, reference compound]",100,> 1000,

# More lines, in order of falling Ki (dipeptidyl peptidase IV), values ahead:
remaining activity at 10 µM (dipeptidyl peptidase IV) [%],Ki (dipeptidyl peptidase IV) [µM],SMILES,further results
47.2,3.5,NC(=O)CC(N)C(=O)N1CCSC1 (centres unmarked) [H-Asn-thiazolidide],
49.7,3.5,NC(Cc1c[nH]cn1)C(=O)N1CCCC1 (centres unmarked) [H-His-pyrrolidide],
45.6,2.9,NC(CC(=O)O)C(=O)N1CCSC1 (centres unmarked) [H-Asp-thiazolidide],
,2.8,NC(CCC(=O)NO)C(=O)N1CCCC1 (centres unmarked) [H-Glu(NHOH)-pyrrolidide],% Residual activity of DP IV in the presence of 10 μM effector (dipeptidyl peptidase IV): 44.9%
35.2,1.8,NC(Cc1c[nH]cn1)C(=O)N1CCSC1 (centres unmarked) [H-His-thiazolidide],
36.5,1.7,NC(CCC(=O)NO)C(=O)N1CCSC1 (centres unmarked) [H-Glu(NHOH)-thiazolidide],
25,0.61,NC(CCC(=O)O)C(=O)N1CCSC1 (centres unmarked) [H-Glu-thiazolidide],
13.6,0.27,CC(C)C(N)C(=O)N1CCSC1 (centres unmarked) [H-Val-thiazolidide],
